The results in this text go back to patent US20040248887A1, “Inhibitors of cathepsin S” (IRM LLC, priority 2003, published 2004).

In the experiment the target is Cathepsin S (Homo sapiens, UniProt P25774). The experiment can be described thus: Cathepsin S inhibition, fluorogenic peptide substrate kinetic assay. The settings on record: Table II; Cathepsin S inhibition constant, pH5.5; read-out: Ki Cat. S. Type of experiment: biochemical. The gist of the method: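 Reactions were started with 50 μM (final) acetyl-His-Pro-Val-Lys-aminocarbamoylcoumarin, and hydrolysis was followed by fluorescence (ex 380/em 450 nm). Apparent inhibition constants from enzyme progress curves were converted to Ki for competitive inhibitors using substrate concentration and Km.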
Sequence of Cathepsin S (P25774 115-331, species assumed): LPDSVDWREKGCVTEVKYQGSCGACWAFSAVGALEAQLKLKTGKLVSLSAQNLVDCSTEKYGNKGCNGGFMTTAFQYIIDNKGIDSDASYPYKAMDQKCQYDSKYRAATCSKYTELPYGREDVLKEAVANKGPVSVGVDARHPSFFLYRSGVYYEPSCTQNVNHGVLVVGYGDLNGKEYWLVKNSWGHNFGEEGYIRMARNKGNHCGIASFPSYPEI

Bounds are passed on as bounds.

A word on the Ki: it is a dissociation constant, usually derived from enzyme kinetics or from competition with a known ligand. Turning to `C[C@@H](CNc1ccc(OC(F)F)cc1)NC(=O)[C@H](CC1CCCCC1)NC(=O)c1ccc(-c2ccc(F)cc2)o1` [Compound 104, 5-(4-Fluoro-phenyl)-furan-2-carboxylic acid {2-cyclohexyl-1-(S)-[2-(4-difluoromethoxy-phenylamino)-1-(S)-methyl-ethylcarbamoyl]-ethyl}-amide], the inhibitory constant (Ki) was under 100 nM.

Turning to “(S)-{2-Cyclohexyl-1-[2-(5-fluoro-2,3-dihydro-indol-1-yl)-ethylcarbamoyl]-ethyl}-carbamic acid benzyl ester [Compound 220]”, the inhibitory constant (Ki) is under 1000 nM. With `Cc1cccc(C(=O)N[C@@H](Cc2ccccc2)C(=O)NC(C)(C)CN2CCc3cc(F)ccc32)c1` [Compound 28, N-{(1S)-[2-(5-Fluoro-2,3-dihydro-indol-1-yl)-1,1-dimethyl-ethylcarbamoyl]-2-phenyl-ethyl}-3-methyl-benzamide], the inhibitory constant (Ki) is under 10000 nM.

On to `C[C@@H](CN1c2ccc(F)cc2CC1(C)C)NC(=O)[C@H](CC1CCCCC1)NC(=O)C1CCOC1` (stereo partly drawn) [Compound 140, Tetrahydrofuran-3-carboxylic acid {2-cyclohexyl-1-(S)-[2-(5-fluoro-2,2-dimethyl-2,3-dihydro-indol-1-yl)-1-(S)-methyl-ethylcarbamoyl]-ethyl}-amide], for which the Ki was under 100 nM. Regarding `C[C@@H](CNc1ccc(C(=O)N(C)C)cc1)NC(=O)[C@H](CC1CCCCC1)NC(=O)c1ccc(-c2cccc(F)c2)o1` [Compound 122, 5-(3-Fluoro-phenyl)-furan-2-carboxylic acid {2-cyclohexyl-1-(S)-[2-(4-dimethylcarbamoyl-phenylamino)-1-(S)-methyl-ethylcarbamoyl]-ethyl}-amide], the Ki is under 100 nM.

Consider `Cc1cccc(S(=O)(=O)N[C@@H](CC2CCCCC2)C(=O)NCCN2CCc3cc(F)ccc32)c1` [Compound 243, (S)-3-Cyclohexyl-N-[2-(5-fluoro-2,3-dihydro-indol-1-yl)-ethyl]-2-(toluene-3-sulfonylamino)-propionamide], for which the Ki is under 100 nM.

Regarding `Cc1cccc(C(=O)N[C@@H](CC(C)C)C(=O)N[C@@H](CCC(=O)OCc2ccccc2)CN2CCc3cc(F)ccc32)c1` [Compound 42, (S,S)-5-(5-Fluoro-2,3-dihydro-indol-1-yl)-4-[4-methyl-2-(3-methyl-benzoylamino)-pentanoylamino]-pentanoic acid benzyl ester], the inhibition constant Ki is under 100 nM. For `O=C(NCCN1CCc2cc(F)ccc21)[C@H](CC1CCCCC1)NS(=O)(=O)c1cc2ccccc2s1` [Compound 234, (S)-2-(Benzo[b]thiophene-2-sulfonylamino)-3-cyclohexyl-N-[2-(5-fluoro-2,3-dihydro-indol-1-yl)-ethyl]-propionamide], the Ki was under 1000 nM. With `O=C(N[C@H](C(=O)N[C@H](CO)CN1CCc2cc(F)ccc21)c1ccc(Cl)cc1Cl)c1ccc(F)c(F)c1` [Compound 214, (S,S)-N-((3-(5-fluoroindolin-1-yl)-1-hydroxypropan-2-ylcarbamoyl)(2,4-dichlorophenyl)methyl)-3,4-difluorobenzamide], the Ki is under 1000 nM. For `COc1cccc(C(=O)N[C@@H](CCC2CCCCC2)C(=O)NCCN2CCc3cc(C#N)ccc32)c1` [Compound 12, (S)-N-{3-Cyclohexyl-1-[2-(5-cyano-2,3-dihydro-indol-1-yl)-ethylcarbamoyl]-propyl}-3-methoxy-benzamide], the Ki was under 10000 nM.

Regarding `COc1cccc(C(=O)N[C@@H](CCC2CCCCC2)C(=O)NCCN2CCc3cc(OC)ccc32)c1` [Compound 16, (S)-N-{3-Cyclohexyl-1-[2-(5-methoxy-2,3-dihydro-indol-1-yl)-ethylcarbamoyl]-propyl}-3-methoxy-benzamide], the Ki was under 10000 nM. Turning to `C[C@@H](CN1CCc2cc(F)ccc21)NC(=O)[C@H](CC(C)(C)C)NC(=O)c1ccnnc1` [Compound 178, Pyridazine-4-carboxylic acid {1-(S)-[2-(5-fluoro-2,3-dihydro-indol-1-yl)-1-(S)-methyl-ethylcarbamoyl]-3,3-dimethyl-butyl}-amide], the inhibitory constant (Ki) is under 100 nM.

Take `C[C@@H](CN1c2ccc(F)cc2CC1(C)C)NC(=O)[C@H](CC1CCCCC1)NC(=O)C1CCOCC1` [Compound 139, Tetrahydropyran-4-carboxylic acid {2-cyclohexyl-1-(S)-[2-(5-fluoro-2,2-dimethyl-2,3-dihydro-indol-1-yl)-1-(S)-methyl-ethylcarbamoyl]-ethyl}-amide]: the Ki was under 100 nM.

In the case of `O=C(N[C@@H](CC1CCCCC1)C(=O)NCCN1CCc2cc(F)ccc21)C1CC(=O)N(Cc2cccs2)C1` (stereo partly drawn) [Compound 73, 5-Oxo-1-thiophen-2-ylmethyl-pyrrolidine-3-carboxylic acid (S)-{2-cyclohexyl-1-[2-(5-fluoro-2,3-dihydro-indol-1-yl)-ethylcarbamoyl]-ethyl}-amide], the Ki was under 100 nM. The value for `Cc1cccc(C(=O)N[C@@H](CC(C)C)C(=O)N[C@@H](CCNC(N)=O)CN2CCc3cc(F)ccc32)c1` [Compound 45, (S,S)-N-{1-[1-(5-Fluoro-2,3-dihydro-indol-1-ylmethyl)-3-ureido-propylcarbamoyl]-3-methyl-butyl}-3-methyl-benzamide] was under 1000 nM. As for `COc1cccc(C(=O)N[C@@H](CCC2CCCCC2)C(=O)NCCN2CCc3cccc(OC)c32)c1` [Compound 8, (S)-N-{3-Cyclohexyl-1-[2-(7-methoxy-2,3-dihydro-indol-1-yl)-ethylcarbamoyl]-propyl}-3-methoxy-benzamide], the Ki is under 10000 nM.

With `COc1ccc(NCC(C)NC(=O)C(CCC2CCCCC2)NC(=O)c2cc3ccccc3[nH]2)cc1` (mixture of isomers) [Compound 24], the inhibition constant Ki was under 1000 nM. For the compound `O=C(Nc1ccc(-c2ccccc2)cc1)N[C@@H](CC1CCCCC1)C(=O)NCCN1CCc2cc(F)ccc21` [Compound 225, (S)-2-(3-Biphenyl-4-yl-ureido)-3-cyclohexyl-N-[2-(5-fluoro-2,3-dihydro-indol-1-yl)-ethyl]-propionamide], the Ki is under 1000 nM. Take `C[C@@H](CNc1ccc(S(C)(=O)=O)cc1)NC(=O)[C@H](CC(C)(C)C)NC(=O)c1ccc(-c2cccc(F)c2)o1` [Compound 129, 5-(3-Fluoro-phenyl)-furan-2-carboxylic acid {1-(S)-[2-(4-methanesulfonyl-phenylamino)-1-(S)-methyl-ethylcarbamoyl]-3,3-dimethyl-butyl}-amide]: the Ki is under 100 nM. Take `C[C@@H](CNc1cccc(F)c1F)NC(=O)[C@H](CC1CCCCC1)NC(=O)c1ccc(-c2cccc(F)c2)o1` [Compound 90, 5-(3-Fluoro-phenyl)-furan-2-carboxylic acid {2-cyclohexyl-1-(S)-[2-(2,3-difluoro-phenylamino)-1-(S)-methyl-ethylcarbamoyl]-ethyl}-amide]: the Ki is under 100 nM. As to `C[C@@H](CNc1ccc(S(C)(=O)=O)cc1)NC(=O)[C@H](CC1CCCCC1)NC(=O)c1ccc(-c2ccc(F)cc2)o1` [Compound 107, 5-(4-Fluoro-phenyl)-furan-2-carboxylic acid {2-cyclohexyl-1-(S)-[2-(4-methanesulfonyl-phenylamino)-1-(S)-methyl-ethylcarbamoyl]-ethyl}-amide], the Ki is under 100 nM.
